# Reference: US5480867A, “Glucagon analogs with serine replacements” (The Rockefeller University, priority 1994, dated 1996)
# Residues, ends and D or L forms follow the SMILES beside them. No end group written: not given here.
# Legend:
# [1] = system: adenylate cyclase; conditions: for % Relative Activity: adenylate cyclase activity relative to glucagon, liver membranes, analogs measured as amides; for pA2: negative logarithm of antagonist concentration reducing response to 1 unit agonist to that of 0.5 unit, measured as amides
# Protocol: Adenylate Cyclase Assay. The assay on liver membranes was performed according to Salomon et al. [Salomon, Y., Londos, C. & rodgell, M. Anal. Biochem. 58, 541, 548 (1974)]. The released cAMP was mixed with [8-^3 H]cAMP measured with a high affinity cAMP binding protein.
# The purpose of the adenylate cyclase assay is to measure the ability of the compound under test to stimulate the activity of adenylate cyclase. The assays are used to measure relative potency, maximum activity and inhibition index.
# The inhibition index, defined above, was determined from adenylate cyclase assays by two different protocols.
# 1. A glucagon standard curve for cAMP vs glucagon concentration was established. Then another glucagon assay curve was measured in the presence of a constant amount of antagonist.
# 2. A series of tubes were set up containing an amount of glucagon which will produce 90% of maximum response. Increasing amounts of antagonist were then added and the concentration that reduced the response to 45% of maximum was determined.
# [2] = target: glucagon receptor (Homo sapiens, UniProt P47871); conditions: background statement; cited from earlier work
# [3] = system: adenylate cyclase; conditions: background statement; cited from earlier work
# Chain of glucagon receptor (P47871 26-477, species assumed): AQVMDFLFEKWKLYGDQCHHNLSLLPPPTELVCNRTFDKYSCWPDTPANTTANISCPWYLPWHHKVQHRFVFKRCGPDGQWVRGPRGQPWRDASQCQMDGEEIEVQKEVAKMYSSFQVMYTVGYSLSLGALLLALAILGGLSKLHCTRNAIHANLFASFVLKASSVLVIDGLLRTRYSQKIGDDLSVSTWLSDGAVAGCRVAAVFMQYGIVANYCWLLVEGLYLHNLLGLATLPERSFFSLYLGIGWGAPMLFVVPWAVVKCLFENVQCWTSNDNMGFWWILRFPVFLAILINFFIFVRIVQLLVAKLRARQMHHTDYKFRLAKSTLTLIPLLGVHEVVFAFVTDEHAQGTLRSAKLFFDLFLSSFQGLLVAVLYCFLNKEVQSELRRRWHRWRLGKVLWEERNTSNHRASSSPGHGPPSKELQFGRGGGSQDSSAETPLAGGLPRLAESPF
Compound,% Relative Activity [1],pA2 [1],binding to the glucagon receptor [2],activation of adenylate cyclase [3]
"CCCC[C@H](NC(=O)[C@H](CO)NC(=O)[C@@H](NC(=O)[C@H](Cc1ccccc1)NC(=O)[C@@H](NC(=O)CNC(=O)[C@H](CCC(N)=O)NC(=O)[C@H](CO)NC(=O)[C@@H](N)Cc1c[nH]cn1)[C@@H](C)O)[C@@H](C)O)C(=O)N[C@@H](Cc1ccc(O)cc1)C(=O)N[C@@H](C)C(=O)N[C@@H](CCCCN)C(=O)N[C@@H](Cc1ccc(O)cc1)C(=O)N[C@@H](CC(C)C)C(=O)N[C@@H](CC(=O)O)C(=O)N[C@@H](CCC(N)=O)C(=O)N[C@@H](CCCNC(=N)N)C(=O)N[C@@H](CCCNC(=N)N)C(=O)N[C@@H](C)C(=O)N[C@@H](CCC(N)=O)C(=O)N[C@@H](CC(=O)O)C(=O)N[C@@H](Cc1ccccc1)C(=O)N[C@H](C(=O)N[C@@H](CCC(N)=O)C(=O)N[C@@H](Cc1c[nH]c2ccccc12)C(=O)N[C@@H](CC(C)C)C(=O)N[C@@H](CCSC)C(=O)N[C@@H](CC(N)=O)C(=O)N[C@H](C(N)=O)[C@@H](C)O)C(C)C [Analog 1, Nle^9 Ala^11 Gln^16] (HELM PEPTIDE1{H.S.Q.G.T.F.T.S.[Nle].Y.A.K.Y.L.D.Q.R.R.A.Q.D.F.V.Q.W.L.M.N.T.[am]}$$$$V2.0)",0.003%,8.7,,
"CCCC[C@H](NC(=O)[C@H](CO)NC(=O)[C@@H](NC(=O)[C@H](Cc1ccccc1)NC(=O)[C@@H](NC(=O)CNC(=O)[C@H](CCC(N)=O)NC(=O)[C@@H](N)CO)[C@@H](C)O)[C@@H](C)O)C(=O)N[C@@H](Cc1ccc(O)cc1)C(=O)N[C@@H](CO)C(=O)N[C@@H](CCCCN)C(=O)N[C@@H](Cc1ccc(O)cc1)C(=O)N[C@@H](CC(C)C)C(=O)N[C@@H](CC(=O)O)C(=O)N[C@@H](C)C(=O)N[C@@H](CCCNC(=N)N)C(=O)N[C@@H](CCCNC(=N)N)C(=O)N[C@@H](C)C(=O)N[C@@H](CCC(N)=O)C(=O)N[C@@H](CC(=O)O)C(=O)N[C@@H](Cc1ccccc1)C(=O)N[C@H](C(=O)N[C@@H](CCC(N)=O)C(=O)N[C@@H](Cc1c[nH]c2ccccc12)C(=O)N[C@@H](CC(C)C)C(=O)N[C@@H](CCSC)C(=O)N[C@@H](CC(N)=O)C(=O)N[C@H](C(N)=O)[C@@H](C)O)C(C)C [Analog 2, des-His^1 Nle^9 Ala^16] (HELM PEPTIDE1{S.Q.G.T.F.T.S.[Nle].Y.S.K.Y.L.D.A.R.R.A.Q.D.F.V.Q.W.L.M.N.T.[am]}$$$$V2.0)",0.001%,8.4,,
"CCCC[C@H](NC(=O)[C@H](CO)NC(=O)[C@@H](NC(=O)[C@H](Cc1ccccc1)NC(=O)[C@@H](NC(=O)CNC(=O)[C@H](CCC(N)=O)NC(=O)[C@@H](N)CO)[C@@H](C)O)[C@@H](C)O)C(=O)N[C@@H](Cc1ccc(O)cc1)C(=O)N[C@@H](C)C(=O)N[C@@H](CCCCN)C(=O)N[C@@H](Cc1ccc(O)cc1)C(=O)N[C@@H](CC(C)C)C(=O)N[C@@H](CC(=O)O)C(=O)N[C@@H](C)C(=O)N[C@@H](CCCNC(=N)N)C(=O)N[C@@H](CCCNC(=N)N)C(=O)N[C@@H](C)C(=O)N[C@@H](CCC(N)=O)C(=O)N[C@@H](CC(=O)O)C(=O)N[C@@H](Cc1ccccc1)C(=O)N[C@H](C(=O)N[C@@H](CCC(N)=O)C(=O)N[C@@H](Cc1c[nH]c2ccccc12)C(=O)N[C@@H](CC(C)C)C(=O)N[C@@H](CCSC)C(=O)N[C@@H](CC(N)=O)C(=O)N[C@H](C(N)=O)[C@@H](C)O)C(C)C [Analog 3, des-His^1 Nle^9 Ala^11 Ala^16] (HELM PEPTIDE1{S.Q.G.T.F.T.S.[Nle].Y.A.K.Y.L.D.A.R.R.A.Q.D.F.V.Q.W.L.M.N.T.[am]}$$$$V2.0)",0.0043%,8.4,,
"CCCC[C@H](NC(=O)[C@H](CO)NC(=O)[C@@H](NC(=O)[C@H](Cc1ccccc1)NC(=O)[C@@H](NC(=O)CNC(=O)[C@H](CCC(N)=O)NC(=O)[C@@H](N)CO)[C@@H](C)O)[C@@H](C)O)C(=O)N[C@@H](Cc1ccc(O)cc1)C(=O)N[C@@H](C)C(=O)N[C@@H](CCCCN)C(=O)N[C@@H](Cc1ccc(O)cc1)C(=O)N[C@@H](CC(C)C)C(=O)N[C@@H](CC(=O)O)C(=O)N[C@@H](CCC(N)=O)C(=O)N[C@@H](CCCNC(=N)N)C(=O)N[C@@H](CCCNC(=N)N)C(=O)N[C@@H](C)C(=O)N[C@@H](CCC(N)=O)C(=O)N[C@@H](CC(=O)O)C(=O)N[C@@H](Cc1ccccc1)C(=O)N[C@H](C(=O)N[C@@H](CCC(N)=O)C(=O)N[C@@H](Cc1c[nH]c2ccccc12)C(=O)N[C@@H](CC(C)C)C(=O)N[C@@H](CCSC)C(=O)N[C@@H](CC(N)=O)C(=O)N[C@H](C(N)=O)[C@@H](C)O)C(C)C [Analog 4, des-His^1 Nle^9 Ala^11 Gln^16] (HELM PEPTIDE1{S.Q.G.T.F.T.S.[Nle].Y.A.K.Y.L.D.Q.R.R.A.Q.D.F.V.Q.W.L.M.N.T.[am]}$$$$V2.0)",0.0011%,8.4,,
Nα-trinitrophenyl [12-homoarginine]glucagon,,,does bind to the glucagon receptor,without significant activation of adenylate cyclase
"SQGTFTSEYAKYLDARRAQEFVQWLMNT-NH2 [Analog 5, des-His^1 Glu^9 Ala^11 Ala^16 Glu^21]",0.016%,8.5,,
